From patent US20090203716A1, “Pyrimidine low molecular weight ligands for modulating hormone receptors” (The Government of the United States of America as …, priority 2006, published 2009)
Entries after “also recorded” stand apart in the source; their conditions may differ.

How the values were obtained:
[1] = solubility; type: physicochemical; conditions: compared to compound 52
[2] = target: TSHR (Homo sapiens, UniProt P16473); test: inhibition of TSH-mediated cAMP response in HEK-EM 293 cells stably expressing TSHR; type: cell-based; design: expressed in transfected cells
Sequence of TSHR (P16473 21-764): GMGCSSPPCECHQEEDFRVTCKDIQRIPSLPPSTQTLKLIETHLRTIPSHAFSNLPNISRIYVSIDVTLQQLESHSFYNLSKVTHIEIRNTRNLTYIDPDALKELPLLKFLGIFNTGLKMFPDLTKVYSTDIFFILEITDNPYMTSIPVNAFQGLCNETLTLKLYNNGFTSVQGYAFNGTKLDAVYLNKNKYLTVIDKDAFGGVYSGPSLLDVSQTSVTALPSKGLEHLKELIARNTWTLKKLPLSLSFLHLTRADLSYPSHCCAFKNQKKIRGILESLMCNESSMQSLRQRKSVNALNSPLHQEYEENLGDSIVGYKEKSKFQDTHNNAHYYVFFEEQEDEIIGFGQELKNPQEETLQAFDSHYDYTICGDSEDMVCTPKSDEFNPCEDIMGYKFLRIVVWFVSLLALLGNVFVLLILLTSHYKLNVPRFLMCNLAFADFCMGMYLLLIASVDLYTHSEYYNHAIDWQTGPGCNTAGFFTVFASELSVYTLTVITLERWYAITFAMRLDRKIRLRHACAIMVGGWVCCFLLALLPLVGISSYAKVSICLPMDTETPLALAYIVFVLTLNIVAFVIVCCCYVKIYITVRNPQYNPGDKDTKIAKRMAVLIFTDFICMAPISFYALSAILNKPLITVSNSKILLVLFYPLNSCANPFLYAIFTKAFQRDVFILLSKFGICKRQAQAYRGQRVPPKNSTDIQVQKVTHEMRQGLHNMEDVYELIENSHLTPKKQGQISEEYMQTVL
Experimental: (§1) Transiently transfected cells were cultured for 48 hours before the cAMP assay. HEK-EM 293 cells stably expressing TSHR, LHCGR or FSHR were seeded into 24-well plates with a density of 2.2×10^5 cells/well 24 hours before the cAMP assay. After removal of growth medium, cells were incubated for 1 hour in HBSS (Cellgro) with 10 mM HEPES (Cellgro) containing 1 mM 3-isobutyl-1-methylxanthine (IBMX) (Sigma) and the ligand of interest in a humidified 5% CO2 incubator at 37° C. The intracellular cAMP content was determined with the cAMP Biotrak Enzymeimmunoassay (EIA) System (GE Healthcare). Data were analyzed using GraphPad Prism 4 for Windows. Receptor expression was measured as described in Jaschke et al., J Biol Chem 281:9841-9844.
The TSH-mediated cAMP response of TSHR was inhibited by a maximum of 70.8±5.5% at 30 μM compound 52. […] Compound 52 has no activity at FSHR.
To exclude the possibility that compound 52 might be acting independently of TSHR by building aggregates with TSH, thereby inhibiting the TSH-induced response, tests were conducted for a possible aggregation between these two ligands. Compound 52 and TSH were preincubated for up to 15 minutes before addition to HEK-EM 293 cells stably expressing TSHR. […] There was no difference in the antagonistic effect whether TSH and compound 52 were preincubated together or not (data not shown) thereby excluding the possibility that its effect was caused by aggregation with TSH.

[3] = target: T1, human LHCG receptor (Homo sapiens, UniProt P22888); test: intracellular cAMP accumulation, agonism at LHCGR stably expressed in HEK EM 293 cells; type: cell-based; conditions: for % Max. Resp. @ LHCGR in μM: % of maximum response of LHCGR to LH (1000 ng/ml); for EC50: read-out: EC50 (LHCGR) in μM [95% C.I.], cAMP, HEK EM 293 cells, dose response 0-100 μM compound
T1 construct: expressed in transfected cells
T1 sequence (P22888 27-699): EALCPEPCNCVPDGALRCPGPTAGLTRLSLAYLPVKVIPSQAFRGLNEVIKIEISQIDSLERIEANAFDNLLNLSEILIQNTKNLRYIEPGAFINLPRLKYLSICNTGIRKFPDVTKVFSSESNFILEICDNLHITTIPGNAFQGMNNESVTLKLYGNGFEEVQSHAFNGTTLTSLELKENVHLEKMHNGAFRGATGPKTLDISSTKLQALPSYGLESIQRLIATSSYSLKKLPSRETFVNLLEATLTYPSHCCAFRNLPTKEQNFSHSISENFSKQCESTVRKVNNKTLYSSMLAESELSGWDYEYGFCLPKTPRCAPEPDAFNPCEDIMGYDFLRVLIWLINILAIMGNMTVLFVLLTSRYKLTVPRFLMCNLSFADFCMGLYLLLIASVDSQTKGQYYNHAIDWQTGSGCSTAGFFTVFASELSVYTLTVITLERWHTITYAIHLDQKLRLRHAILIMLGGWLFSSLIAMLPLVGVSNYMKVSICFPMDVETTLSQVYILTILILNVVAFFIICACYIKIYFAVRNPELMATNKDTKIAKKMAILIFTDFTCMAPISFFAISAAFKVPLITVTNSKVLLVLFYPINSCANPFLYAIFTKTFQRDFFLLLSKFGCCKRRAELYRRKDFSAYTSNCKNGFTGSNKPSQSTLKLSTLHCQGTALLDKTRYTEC
Experimental: (§2) With reference to Table 1, exemplary disclosed compounds were evaluated against human TSH receptor and human LHCG receptor that were stably expressed in HEK 293 EM cells as previously described by Libert et al. (Biochem. Biophys. Res. Commun. 1989, 165, 1250-1255); and by Schulz et al. (Mol. Endocrinol. 1999, 13, 181-190). Cell surface expression of TSH receptor and LHCG receptor were determined via FACS analysis (Kleinau, G.; Jäschke, H.; Neumann, S.; Lättig, S.; Paschke, R.; Krause, G. J. Biol. Chem. 2004, 279, 51590-51600).
Following aspiration of the medium after incubation with compounds, cells were lysed using lysis buffer 1 of the cAMP Biotrak Enzymeimmunoassay (EIA) System (Amersham Biosciences). The cAMP content of the cell lysate was determined using the manufacturer's protocol. […] The potency (EC50) was obtained from dose response curves (0-100 μM compound) by data analysis with GraphPad Prism 4 for Windows. […] The data are presented as mean±SEM of two independent experiments, each performed in duplicate.
as §1

[4] = target: T2, human TSH receptor (Homo sapiens, UniProt P16473); test: intracellular cAMP accumulation, agonism at TSHR stably expressed in HEK EM 293 cells; type: cell-based; conditions: for % Max. Resp. @ TSHR in μM: % of maximum response of TSHR to TSH (100 mU/ml), * estimated maximum response at 100 μM compound; for EC50: cAMP, HEK EM 293 cells, dose response 0-100 μM compound, ** estimated EC50, no plateau
T2 construct: expressed in transfected cells
T2 sequence (P16473 21-764): as the sequence (P16473 21-764) above
Experimental: as §2, with “51590-51600). Agonism of compounds 3-20 were determined via measurement of intracellular cyclic AMP accumulation. […] For example, […] certain compounds disclosed herein exerted no discernible effect on the FSH receptor.” for “51590-51600).”
Cells were cultured for 48 h in 24-well plates before incubation for 1 h in serum-free DMEM containing 1 mM 3-isobutyl-1-methylxanthine (IBMX) (SIGMA) and bovine TSH (1.8 μM) (SIGMA) or human LH (1000 ng/ml) (Dr. A. Parlow, NIDDK National Hormone and Pituitary Program) or compounds 3-19 (0-100 μM) in a humidified 5% CO2 incubator. Following aspiration of the medium after incubation with compounds, cells were lysed using lysis buffer 1 of the cAMP Biotrak Enzymeimmunoassay (EIA) System (Amersham Biosciences). The cAMP content of the cell lysate was determined using the manufacturer's protocol. The efficacy of receptor activation by small molecule modulators is expressed as % of maximum response of LHCG receptor or TSH receptor to LH or TSH, respectively. The potency (EC50) was obtained from dose response curves (0-100 μM compound) by data analysis with GraphPad Prism 4 for Windows. With reference to FIG. 1, intracellular cAMP production was determined in response to 100 μM of each compound and is expressed as % of maximum response of TSHR/LHCGR to TSH (100 mU/ml)/LH (1000 ng/ml). The data are presented as mean±SEM of two independent experiments, each performed in duplicate.
as §1

| solubility [1] | % Max. Resp. @ LHCGR in μM [3] | EC50 [3] | % Max. Resp. @ TSHR in μM [4] | EC50 [4] | SMILES | antagonistic activity at TSHR in cAMP assay [2] |
| --- | --- | --- | --- | --- | --- | --- |
| improved solubility |  |  |  |  | C[S+]([O-])C/C=C/c1ccc(-c2nc([S+](C)[O-])nc3sc(C(=O)NC(C)(C)C)c(N)c23)cc1 (centres unmarked) [Compound 52/3] | antagonist activity similar to compound 52; also recorded: antagonistic activity |
|  | 23.8 ± 3.3% | 1.1 µM | >30.3* % | 11900 nM | COc1cccc(-c2nc(SC)nc3sc(C(=O)OC(C)(C)C)c(N)c23)c1 [Compound 5, tert-butyl-5-amino-4-(3-methoxyphenyl)-2-(methylthio)thieno[2,3-d]pyrimidine-6-carboxylate] |  |
|  | 46.3 ± 6.6% | 1.5 µM | >24.0* % | 11500 nM | COc1cccc(-c2nc(SC)nc3sc(C(=O)NC(C)(C)C)c(N)c23)c1F [Compound 17, N-tert-butyl-5-amino-4-(2-fluoro-3-methoxyphenyl)-2-(methylthio)thieno[2,3-d]pyrimidine-6-carboxamide] |  |
|  | 7.8 ± 2.7% |  | 3.0 ± 1.2% |  | COc1cccc(-c2nc(SC)nc3sc(C(=O)NCc4ccccc4)c(N)c23)c1 [Compound 14, 5-amino-N-benzyl-4-(3-methoxyphenyl)-2-(methylthio)thieno[2,3-d]pyrimidine-6-carboxamide] |  |
|  | 26.9 ± 4.8% |  | 2.3 ± 0.4% |  | CCNC(=O)c1sc2nc(SC)nc(-c3cccc(OC)c3)c2c1N [Compound 6, 5-amino-N-(ethyl)-4-(3-methoxyphenyl)-2-(methylthio)thieno[2,3-d]pyrimidine-6-carboxamide] |  |
|  | 4.2 ± 2.2% |  | 1.5 ± 0.2% |  | CCOC(=O)c1sc2nc(SC)nc(-c3cccc(OC)c3)c2c1N [Compound 4, ethyl-5-amino-4-(3-methoxyphenyl)-2-(methylthio)thieno[2,3-d]pyrimidine-6-carboxylate] |  |
| improved solubility |  |  |  |  | C[S+]([O-])c1nc(-c2ccc(/C=C/CS(C)(=O)=O)cc2)c2c(N)c(C(=O)NC(C)(C)C)sc2n1 (centres unmarked) [Compound 52/2] | antagonist activity similar to compound 52; also recorded: antagonistic activity |
|  | 2.4 ± 0.5% |  | 1.9 ± 0.4% |  | COc1cccc(-c2nc(SC)nc3sc(C(=O)NNC(=O)OC(C)(C)C)c(N)c23)c1 [Compound 11, N′-Boc-5-amino-4-(3-methoxyphenyl)-2-(methylthio)thieno[2,3-d]pyrimidine-6-carbohydrazide] |  |
|  |  |  |  |  | CSc1nc(-c2ccc(/C=C/CS(C)(=O)=O)cc2)c2c(N)c(C(=O)NC(C)(C)C)sc2n1 [Compound 52/1] | no antagonistic activity |
|  | 8.5 ± 3.6% |  | 6.1 ± 0.8% |  | COc1cccc(-c2nc(SC)nc3sc(C(=O)NN)c(N)c23)c1 [Compound 8, 5-amino-4-(3-methoxyphenyl)-2-(methylthio)thieno[2,3-d]pyrimidine-6-carbohydrazide] |  |
|  | 63.9 ± 14.2% | 1.9 µM | 11.2 ± 1.0% |  | CSc1nc(-c2cccc(O)c2)c2c(N)c(C(=O)NC(C)(C)C)sc2n1 [Compound 19, N-tert-butyl-5-amino-4-(3-hydroxyphenyl)-2-(methylthio)thieno[2,3-d]pyrimidine-6-carboxamide] |  |
|  | 6.0 ± 3.1% |  | 6.4 ± 0.6% |  | COc1cccc(-c2nc(SC)nc3sc(C(=O)NNC(C)(C)C)c(N)c23)c1 [Compound 10, N′-tert-butyl-5-amino-4-(3-methoxyphenyl)-2-(methylthio)thieno[2,3-d]pyrimidine-6-carbohydrazide] |  |
|  | 11.0 ± 1.5% |  | 4.0 ± 0.1% |  | COc1cccc(-c2nc(SC)nc3sc(C(=O)NN(C)C)c(N)c23)c1 [Compound 9, 5-amino-4-(3-methoxyphenyl)-N′N′-dimethyl-2-(methylthio)thieno[2,3-d]pyrimidine-6-carbohydrazide] |  |
|  | 50.1 ± 3.6% | 0.8 µM | 3.0 ± 0.9% |  | COc1cccc(-c2nc(SC)nc3sc(C(=O)NC(C)(C)C)c(N)c23)c1OC [Compound 16, N-tert-butyl-5-amino-4-(2,3-dimethoxyphenyl)-2-(methylthio)thieno[2,3-d]pyrimidine-6-carboxamide] |  |
|  | 47.8 ± 2.8% | 0.8 µM | 3.6 ± 1.9% |  | COc1cccc(-c2nc(SC)nc3sc(C(=O)N(C)C(C)(C)C)c(N)c23)c1 [Compound 7, N-tert-butyl-5-amino-4-(3-methoxyphenyl)-N-methyl-2-(methylthio)thieno[2,3-d]pyrimidine-6-carboxamide] |  |
|  | 20.3 ± 2.1% |  | 3.6 ± 0.6% |  | COc1cccc(-c2nc(SC)nc3sc(C(=O)NCC#N)c(N)c23)c1 [Compound 13, 5-amino-N-(cyanomethyl)-4-(3-methoxyphenyl)-2-(methylthio)thieno[2,3-d]pyrimidine-6-carboxamide] |  |
|  | 25.6 ± 5.4% |  | 4.3 ± 0.4% |  | COc1cccc(-c2nc(SC)nc3sc(C(=O)NCCc4ccccc4)c(N)c23)c1 [Compound 15, 5-amino-4-(3-methoxyphenyl)-2-(methylthio)-N-phenethylthieno[2,3-d]pyrimidine-6-carboxamide] |  |
|  | 20.5 ± 2.7% |  | 2.9 ± 0.5% |  | COc1cccc(-c2nc(SC)nc3sc(C(=O)NCCO)c(N)c23)c1 [Compound 12, 5-amino-4-(3-methoxyphenyl)-N-(2-hydroxyethyl)-2-(methylthio)thieno[2,3-d]pyrimidine-6-carboxamide] |  |

| SMILES | solubility [1] | % Max. Resp. @ LHCGR in μM [3] | EC50 [3] | % Max. Resp. @ TSHR in μM [4] | EC50 [4] | antagonistic activity at TSHR in cAMP assay [2] |
| --- | --- | --- | --- | --- | --- | --- |
| CSc1nc(-c2cccc(F)c2)c2c(N)c(C(=O)NC(C)(C)C)sc2n1 [Compound 18, N-tert-butyl-5-amino-4-(3-fluorophenyl)-2-(methylthio)thieno[2,3-d]pyrimidine-6-carboxamide] |  |  | 1.2 µM | 8.1 ± 1.7% |  |  |
